The subject of data set [1] is Balb/cJ mice. Description: CPT-11-induced delayed diarrhea and intestinal damage in mice.
The target in data set [2] is E. coli β-glucuronidase (Escherichia coli, UniProt P05804). Description: E. coli β-glucuronidase in vitro inhibition assay. In kind it is biochemical. The note with it: errors SD, N = 3.
Data set [3] has as its target β-glucuronidase activity in cultured E. coli cells (Escherichia coli, UniProt P05804). Description: β-glucuronidase activity in living E. coli cells. In kind it is cell-based.

Entries after “also recorded” stand apart in the source; their conditions may differ.

The IC50 is the concentration that gives 50% inhibition. Higher therefore signals weaker potency. The Ki is the equilibrium dissociation constant of an inhibitor or competing ligand from its target. Low readings indicate higher affinity, high ones lower affinity.

β-glucuronidase activity in cultured E. coli cells, sequence (P05804 whole entry): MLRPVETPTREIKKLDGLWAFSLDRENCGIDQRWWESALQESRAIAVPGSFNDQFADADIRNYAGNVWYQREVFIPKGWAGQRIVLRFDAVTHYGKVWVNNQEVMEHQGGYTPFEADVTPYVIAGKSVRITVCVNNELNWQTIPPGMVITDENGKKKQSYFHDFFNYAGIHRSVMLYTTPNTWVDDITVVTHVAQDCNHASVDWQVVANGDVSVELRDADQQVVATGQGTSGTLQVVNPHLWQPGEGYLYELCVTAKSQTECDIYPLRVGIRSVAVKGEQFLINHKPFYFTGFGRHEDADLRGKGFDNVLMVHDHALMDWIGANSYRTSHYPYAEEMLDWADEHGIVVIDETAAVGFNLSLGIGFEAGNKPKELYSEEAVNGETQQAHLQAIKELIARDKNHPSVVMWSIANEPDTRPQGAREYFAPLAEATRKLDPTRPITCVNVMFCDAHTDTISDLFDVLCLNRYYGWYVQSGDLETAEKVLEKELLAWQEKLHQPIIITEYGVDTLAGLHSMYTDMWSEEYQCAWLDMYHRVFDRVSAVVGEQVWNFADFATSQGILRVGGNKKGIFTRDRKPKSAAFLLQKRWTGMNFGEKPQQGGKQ
E. coli β-glucuronidase, sequence (P05804 whole entry): as above

Take `CCc1c2c(nc3ccc(OC(=O)N4CCC(N5CCCCC5)CC4)cc13)-c1cc3c(c(=O)n1C2)COC(=O)[C@]3(O)CC` [CPT-11, irinotecan, reference compound]: the “diarrhea and bloody diarrhea, CPT-11 only” value in data set [1] (group 3: CPT-11 50 mg per kg i.p. once daily, no Inhibitor 1, days 8 to 10) was “all the animals; also recorded: produced bloody diarrhea starting after 8 days and peaking at 10 days”. In addition, the “colonic tissue histology, CPT-11 only” value in data set [1] (group 3: CPT-11 only) is recorded as “destroyed these tissues; also recorded: highly disrupted tissues”. In data set [1] (group 3: CPT-11 only, by day 11), the “euthanasia, CPT-11 only” value is given as “all the group 3 animals had to be euthanized”.
With glucaro-δ-lactam [reference compound], in data set [2], 26.4 ± 0.483 µM corresponded to half-maximal inhibition (IC50) and the affinity corresponds to a Ki of 7.75 ± 0.475 µM. In data set [3] (E. coli cell-based, errors SD, N = 3), the EC50 entry is “N.E”. For the same compound, in data set [3] (cultured E. coli, listed as GDL), the “effect on β-glucuronidase activity in cultured E. coli cells” value is on record as “did not disrupt β-glucuronidase activity; also recorded: no effect”.
